The values below are quoted from earlier work in patent US20110159084A1, “RALOXIFENE PHARMACEUTICAL FORMULATIONS” (DR. REDDY'S LABORATORIES LTD., priority 2008, published 2011).

For data set [1] the following is noted: 37° C.
The conditions of data set [2]: in vivo.

Regarding `Cl.O=C(c1ccc(OCCN2CCCCC2)cc1)c1c(-c2ccc(O)cc2)sc2cc(O)ccc12` [Raloxifene hydrochloride, methanone, [6-hydroxy-2-(4-hydroxyphenyl)benzo[b]thiene-3-yl]-[4-[2-(1-piperidinyl)ethoxy]phenyl]-, hydrochloride], in data set [1] (SGF USP), the “solubility in simulated gastric fluid (SGF) USP” value is 3 µg/mL. Further, in data set [1] (SIF USP), the “solubility in simulated intestinal fluid (SIF) USP” value is 2 µg/mL. Further, the absolute bioavailability result in data set [2] is listed as “about 2%”.
For the compound Raloxifene, in data set [2], the absolute bioavailability is given as 2% and the intra-subject pharmacokinetic variability entry is reported as “approximately 30 % coefficient of variation”.
